Results from patent US6559158B1, “Use of methylnaltrexone and related compounds to treat chronic opioid use side affects” (UR Labs, Inc., priority 1997, dated 2003).
Several values for one entry are separate records, joined by “and”; a condition that tells them apart may be missing. Identical values can stand only once.

Tests used:
[1] = system: chronic methadone subjects; test: Example 3: oral methylnaltrexone, oral-cecal transit time; type: in vivo, human
Protocol: (§1) The oral-cecal transit time was assessed by the pulmonary hydrogen (H2) measurement technique, which measures pulmonary H2 that is produced when unabsorbed lactulose is fermented by colonic bacteria and excreted in the breath. This H2 production is reflected by a concomitant increase in breath H2 excretion. […] Dis. Sci., 32:829-832 (1987)). Hydrogen breath tests were conducted every 15 min until oral-cecal transit time was determined.
Twelve constipated adults (≦2 stool/week) were enrolled. […] Drug administrations were single-blinded to the subject.

[2] = system: normal volunteers; test: FIG. 5: oral-cecal transit time of normal volunteers given MNTX; type: in vivo, human; conditions: normal subjects, doses 2.1 mg/kg to 6.4 mg/kg (FIG. 5)
Protocol: FIG. 5 is a comparison of oral-cecal transit times of normal volunteers and methadone maintenance subjects showing the increased responsiveness of chronic opioid patients to MNTX. At doses ranging from 2.1 mg/kg to 6.4 mg/kg, normal subjects experienced about a 15-20% reduction in oral-cecal transit time, while at a dose of 3.0 mg/kg, methadone subjects experienced a greater than 35% reduction in oral-cecal transit time.

[3] = Example 1: peak plasma methylnaltrexone level (HPLC); type: in vivo, human
Protocol: (§2) After each test drug administration, seven blood samples (5 ml each) were obtained at time 0, 5, 30 min, and 1, 2, 4, 8 h, and three urine samples were collected at time 0, 2, and 4 h. Plasma and urine methylnaltrexone levels were determined by an HPLC technique with a detection limit of 2 ng/ml (Kim et al., 1989; Yuan et al., Clin. Pharmacol Ther., 59:469-475 (1996); both herein incorporated by reference). […] Subjects' bowel movements were witnessed and recorded by a research nurse.

[4] = intravenous; cited from earlier work
[5] = system: chronic methadone subjects; test: Example 2: oral-cecal transit time (lactulose hydrogen breath test); type: in vivo, human
Protocol: as §1
The oral-cecal transit time was assessed as in Example 1.

[6] = system: chronic methadone subjects; test: Example 3: oral methylnaltrexone, opioid withdrawal and adverse effects; conditions: oral 0.3-3.0 mg/kg
Protocol: (§3) Since oral medication is a safer and more convenient way to deliver drugs than is intravenous administration, the efficacy of oral MNTX in relieving constipation in methadone maintained patients was evaluated. Twelve constipated adults (≦2 stool/week) were enrolled. Their daily methadone dose was 73.3±16.2 mg (41-100 mg), mean±SD (range). On day 1 at 9AM, subjects ingested 10 g lactulose (Solvay Pharmaceuticals) to assess oral-cecal transit time as described above, and a placebo capsule. On day 2 at 9AM, subjects again received lactulose, and a capsule containing methylnaltrexone (Mallinckrodt). Ascending oral methylnaltrexone doses (0.3, 1.0, and 3,0 mg/kg) were given to 3 groups of 4 subjects per group. Drug administrations were single-blinded to the subject. Laxation response and potential opioid withdrawal were recorded and blood samples were collected.

[7] = humans; cited from earlier work
[8] = system: chronic methadone subjects with methadone-induced constipation; test: Example 1: intravenous methylnaltrexone, laxation response and stool frequency in methadone maintenance subjects; type: in vivo, human; conditions: for Stool frequency Methylnaltrexone (per day): during iv methylnaltrexone treatment
Protocol: Methylnaltrexone dose of 0.45 mg/kg was chosen to start this trial because this dose was previously given in normal volunteers and prevented opioid-induced delay of the oral-cecal transit time without any side effects (Yuan et al., Clin. Pharmacol Ther., 59:469-475 (1996)). Drug administration was performed single blind to the subjects in this pilot study. Thus, methylnaltrexone dose could be adjusted based on subjects' clinical response during the study.
All four subjects received placebo (normal saline) on Day 1. Thereafter, subjects received intravenous methylnaltrexone until the end of the study.
On Day 2 at 09:00 hours (h), Subjects 1 and 2 were given 0.45 mg/kg intravenous methylnaltrexone over 1 min. Subject 2 experienced severe abdominal cramps after receiving the compound and was withdrawn from the study. […] Beginning on Day 4, the study was resumed for Subject 1 using 0.45 mg/kg of methylnaltrexone, diluted with 50 ml normal saline and administered over 30 min. Infusion could be stopped at any time for complaints of abdominal pain.
For Subjects 3 and 4, the study was shortened from 8 to 5 days, methylnaltrexone dosage was decreased, and a new, three-step dosing procedure was established. Methylnaltrexone 0.05 mg/kg, mixed in 30 ml normal saline (first syringe), was infused intravenously over 10 min. The subject was then observed 10 min for drug response. If there was no response, then methylnaltrexone 0.1 mg/kg (second syringe), mixed in 30 ml normal saline, was infused over 15 min. Subject was observed 15 min for drug response. If there was no response, then methylnaltrexone 0.3 mg/kg (third syringe), mixed in 30 ml normal saline, was infused over 15 min.
as §2

[9] = Example 3: plasma level after oral methylnaltrexone
Protocol: as §3

[10] = Example 4: pharmacokinetics of 0.45 mg/kg intravenous methylnaltrexone; conditions: per subject (1-12) and Mean ± SD
Protocol: Sessions were separated by at least 1 week. Each session lasted approximately 7 hours, and the subjects received one of three injections: (1) placebo plus placebo, (2) placebo plus 0.05 mg/kg morphine, or (3) 0.45 mg/kg methylnaltrexone plus 0.05 mg/kg morphine. Injection I was given at the first session, and the subjects were blinded to the medication. Injections 2 and 3 were given in a random order, and the subjects and observers were blinded to the medication. Injection assignments were prepared by random selection on a computer and were sealed in envelopes.

C[N@+]1(CC2CC2)CC[C@]23c4c5ccc(O)c4O[C@H]2C(=O)CC[C@@]3(O)[C@H]1C5 [methylnaltrexone, N-methylnaltrexone bromide]
reduction in oral-cecal transit time ([1]; methadone subjects, dose of 3.0 mg/kg (FIG. 5)): greater than 35% | dose-related reduction of oral-cecal transit times ([1]; oral 0.3, 1.0, 3.0 mg/kg, p<0.05, Spearman rank correlation and linear regression): significant dose-response effect | reduction in oral-cecal transit time [2]: 15-20% | Peak plasma methylnaltrexone level ([3]; Subject 1, 0.45 mg/kg iv): 1.65 µg/mL | Peak plasma methylnaltrexone level ([3]; Subject 2, 0.45 mg/kg iv): 1.10 µg/mL | Peak plasma methylnaltrexone level ([3]; Subject 3, 0.05-0.15 mg/kg iv): 0.25 µg/mL | Peak plasma methylnaltrexone level ([3]; Subject 4, 0.05-0.15 mg/kg iv): 0.53 µg/mL | elimination half-life [4]: approximately 2 h | oral-cecal transit time after study drug ([5]; methylnaltrexone group n=11, Day 2, iv, mean±SD, range 30-105, baseline 132.3±36.0): 54.5 ± 19.3 min | average change in oral-cecal transit time from baseline ([5]; methylnaltrexone group n=11, P<0.001 vs placebo group): -77.7 ± 37.2 min | opioid withdrawal ([6]; any subjects): no opioid withdrawal | abdominal cramping ([6]; most subjects): very mild abdominal cramping | adverse effects [6]: no adverse effects were reported | blood-brain barrier passage [7]: does not cross the blood-brain barrier | de-methylation [7]: do not appreciably de-methylate | Laxation response ([8]; Subjects 1 and 2, 0.45 mg/kg iv): immediate positive Taxation | Laxation response ([8]; Subjects 3 and 4, 0.05-0.15 mg/kg iv twice daily for 4 consecutive days): immediate laxation response | Stool frequency Methylnaltrexone (per day) ([8]; #1 0.45 mg/kg bid, #2 0.45 mg/kg, #3 and #4 0.05-0.15 mg/kg bid, iv methylnaltrexone 0.45 mg/kg): 1 per day | Stool frequency Methylnaltrexone (per day) ([8]; #1 0.45 mg/kg bid, #2 0.45 mg/kg, #3 and #4 0.05-0.15 mg/kg bid, iv methylnaltrexone 0.05-0.15, bid mg/kg): 2 per day | Stool frequency Methylnaltrexone (per day) ([8]; #1 0.45 mg/kg bid, #2 0.45 mg/kg, #3 and #4 0.05-0.15 mg/kg bid, iv methylnaltrexone 0.05-015, bid mg/kg): 1.3 per day | Stool frequency Methylnaltrexone (per day) ([8]; #1 0.45 mg/kg bid, #2 0.45 mg/kg, #3 and #4 0.05-0.15 mg/kg bid, iv methylnaltrexone 0.45, bid mg/kg): 1.5 per day | stool frequency during the treatment period ([8]; four subjects, iv methylnaltrexone, 1-2 times per week before the study): approximately 1.5 stool per day | Laxation response ([8]; iv methylnaltrexone, #1 0.45 mg/kg bid, #2 0.45 mg/kg, #3 and #4 0.05-0.15 mg/kg bid): Immediate | Peak plasma level ([9]; 4 subjects with detectable level (one 1.0 mg/kg, three 3.0 mg/kg oral), mean±SD, range 10-26): 17.8 ± 6.6 ng/mL | subjects with undetectable methylnaltrexone in plasma ([9]; of 12 subjects, oral 0.3-3.0 mg/kg): Eight | AUC ([10]; human, in vivo, iv, 0.45 mg/kg, AUC, area under the plasma concentration-time curve from 0 to 6 hours): 549 ng·h/mL | AUC, area under the plasma concentration-time curve from 0 to 6 hours [10]: 694 ng·h/mL and 595 ng·h/mL and 637 ng·h/mL and 588 ng·h/mL and 1013 ng·h/mL and 634 ng·h/mL and 587 ng·h/mL and 747 ng·h/mL and 677 ng·h/mL and 742 ng·h/mL and 658 ng·h/mL | CL, total body clearance [10]: 51.7 L/h and 61.6 L/h and 41.6 L/h and 62.2 L/h and 68.1 L/h and 28.4 L/h and 73.2 L/h and 43.0 L/h and 45.2 L/h and 46.5 L/h and 47.8 L/h and 60.1 L/h | Cmax, peak free plasma concentration [10]: 2111 ng/mL and 4309 ng/mL and 1921 ng/mL and 2418 ng/mL and 5471 ng/mL and 4076 ng/mL and 3443 ng/mL and 2993 ng/mL and 3059 ng/mL and 3119 ng/mL and 4033 ng/mL and 2640 ng/mL | Fu, percentage of dose excreted unchanged in urine from 0 to 3 hours [10]: 33.8% and 36.5% and 43.5% and 26.6% and 49.6% and 73.4% and 44.4% and 46.0% and 39.5% and 40.4% and 35.1% and 34.0% | t1/2β, terminal half-life [10]: 2.077 h and 2.71 h and 3.385 h and 3.968 h and 1.42 h and 1.56 h and 1.903 h and 2.53 h and 1.875 h and 1.772 h and 1.6 h and 1.46 h
